{
  "source": "patent US5168102A",
  "about": "“Endocrine manipulation to improve body composition of poultry” (priority 1990, dated 1992)",
  "key": {"[1]": {"assay": "Example 3: plasma hormone levels (RIA)", "type": "in vivo, broiler cockerels", "experimental": "Day-old broiler cockerels were randomly assigned to 24 pens (5 birds/pen) in a battery brooder. The total duration of the bird management period lasted from 7 to 8 weeks. […] 3, four birds from each pen were transferred to wire grow-out cages. […] Body weight and feed consumption were determined at weekly intervals. A 5 ml blood sample was obtained from each bird at week no. 7 and stored at -20° C. until assayed for plasma hormones.\nEquilibrium, double antibodies radioimmunoassays (RIA) were used to determine plasma levels of chicken growth hormone (GH) according to Proudman, Proc. Soc. […] Plasma insulin was quantified by using nonequilibrium RIA described by McMurtry et al., Poult. […] Plasma level of insulin-like growth factor-I (IGF-I) was determined by heterologous RIA in accordance with McGuinness."}, "[2]": {"settings": "exogenous; cited from earlier work"}, "[3]": {"assay": "Example 1: plasma hormone concentrations (radioimmunoassays)", "excerpt": "The purpose of this study was to determine the effect manipulating blood levels of thyroid hormones and/or growth hormone on growth performance and body composition of broiler chickens. […] Purified natural chicken growth hormone (ncGH) was obtained from the Research and Education Center, Harbor-UCLA Medical Center, Torrance, Calif. […] The premix (200 g) was then used to prepare 50 kg batches of each experimental diet according to the formula for broiler-finisher ration described in Table 1. The diet containing 0.5% PTU was prepared by mixing 250 g of PTU into 49.75 kg of the basal ration (Table 1).\nBroiler cockerels (Ross X Arbor Acre strain) were raised to 3 weeks-of-age in a battery-brooder and then transferred to wire grow-out cages (4 birds/pen) held in two controlled-environment rooms (10 pens/room). Beginning at 3 weeks of age, eight birds (2 pens of 4 birds) were randomly assigned to each of 10 treatments. The chickens were provided the experimental diets and water ad libitum. […] For injection, the ncGH was reconstituted in sterile 0.025M sodium bicarbonate buffer (pH 9.8). The 10 treatments were administered for 21 days (i.e., from 3 to 6 weeks of age).\nMeasurement of body weight and feed consumption at weekly intervals allowed calculation of the average daily gain (ADG, g/bird/day), average daily feed consumption (ADFC, g/bird/day) and the feed-to-gain ratio (FIG, kg feed/kg gain) over the 21 day experimental period. Blood samples were taken each week (4, 5, and 6 weeks) just before (pre-injection) and 4 hours post-injection of ncGH. […] At the conclusion of the study, birds were killed and the carcasses frozen for proximate analysis. The frozen carcasses were ground in a meat grinder and aliquots of each ground carcass taken for determination of moisture, protein, fat and ash by established analytical procedures (Official Method of Analysis, Edition 13, W. Horwitz ed., Association of Official Analytical Chemist, Washington, D.C., 1980). Body composition data are presented as a percent of live weight at 6 weeks-of-age. Least squares regression analysis was used to test for significant differences (P<0.05) due treatment."}, "[4]": {"excerpt": "Referring now to broiler chickens as a benchmark for the beneficial effects of this invention, it must be noted that these chickens grow from a weight of 30 to 50 grams at hatching to about 1.5-3 or even as much as 5 kilograms of body weight at market age. Of this market weight, 15-20 wt.-% is protein, 2-3 wt.-% is inorganic (showing up as ash in proximate analysis of body composition), and more than 10 wt.-% (e.g. 10-20 wt.-%) is fat, which means that the protein:fat ratio (by weight) is likely to be at or below 1.5:1 and certainly well below 2:1."}},
  "note": "Entries after “also recorded” stand apart in the source; their conditions may differ. Read-outs that look alike come from different tables or passages of the source.",
  "data": [
    {"compound": "N[C@@H](Cc1cc(I)c(Oc2ccc(O)c(I)c2)c(I)c1)C(=O)O", "note": "[T3, 3,3',5-triiodo-L-thyronine]", "values": [
      {"measurement": "glucagon secretion, increase", "setting": "[1]; 0.25 ppm", "value": 16, "unit": "%"},
      {"measurement": "plasma T3 level, fold elevation", "setting": "[1]; 0.25 ppm", "value": 2.1, "unit": "fold"},
      {"measurement": "plasma insulin, reduction", "setting": "[1]; 0.25 ppm", "value": 27, "unit": "%"},
      {"measurement": "I/G ratio, reduction", "setting": "[1]; 0.25 ppm (p<0.05)", "value": 31, "unit": "%"},
      {"measurement": "I/G Ratio (molar)", "setting": "[1]; 0.25 ppm of feed", "value": "0.81 ± .20"},
      {"measurement": "plasma GH", "setting": "[1]; 0.25 ppm of feed", "value": "2.0 ± 0.4", "unit": "ng/mL"},
      {"measurement": "plasma Glucagon", "setting": "[1]; 0.25 ppm of feed", "value": "656 ± 75", "unit": "pg/mL"},
      {"measurement": "plasma IGF-I", "setting": "[1]; 0.25 ppm of feed", "value": "100.7 ± 2.9", "unit": "ng eg/ml"},
      {"measurement": "plasma Insulin", "setting": "[1]; 0.25 ppm of feed", "value": "772 ± 155", "unit": "pg/mL"},
      {"measurement": "plasma T4", "setting": "[1]; 0.25 ppm of feed", "value": "6.3 ± 0.6", "unit": "ng/mL"},
      {"measurement": "effect on plasma IGF-1 level", "setting": "[1]; 0.25 to 4.0 ppm", "value": "only reduced (p<0.05) by the 4.0 ppm level"},
      {"measurement": "I/G molar ratio, reduction", "setting": "[1]; 1 or 4 ppm (p<0.05)", "value": "70-76%"},
      {"measurement": "glucagon secretion, increase", "setting": "[1]; 1.0 ppm (p<0.05)", "value": 44, "unit": "%"},
      {"measurement": "plasma insulin, reduction", "setting": "[1]; 1.0 ppm (p<0.05)", "value": 60, "unit": "%"},
      {"measurement": "I/G Ratio (molar)", "setting": "[1]; 1.0 ppm of feed", "value": "0.35 ± .06"},
      {"measurement": "plasma GH", "setting": "[1]; 1.0 ppm of feed", "value": "2.1 ± 0.4", "unit": "ng/mL"},
      {"measurement": "plasma Glucagon", "setting": "[1]; 1.0 ppm of feed", "value": "816 ± 64", "unit": "pg/mL"},
      {"measurement": "plasma IGF-I", "setting": "[1]; 1.0 ppm of feed", "value": "97.7 ± 6.3", "unit": "ng eg/ml"},
      {"measurement": "plasma Insulin", "setting": "[1]; 1.0 ppm of feed", "value": "426 ± 65", "unit": "pg/mL"},
      {"measurement": "plasma T4", "setting": "[1]; 1.0 ppm of feed", "value": "6.2 ± 0.6", "unit": "ng/mL"},
      {"measurement": "plasma T3 level, fold elevation", "setting": "[1]; 4 ppm", "value": 12.6, "unit": "fold"},
      {"measurement": "glucagon secretion, increase", "setting": "[1]; 4.0 ppm (p<0.05)", "value": 46, "unit": "%"},
      {"measurement": "plasma insulin, reduction", "setting": "[1]; 4.0 ppm (p<0.05)", "value": 68, "unit": "%"},
      {"measurement": "Plasma T3 level (control group = 100% of normal)", "setting": "[1]; 4 ppm in feed", "value": "~ 1254%"},
      {"measurement": "I/G Ratio (molar)", "setting": "[1]; 4.0 ppm of feed", "value": "0.28 ± .08"},
      {"measurement": "plasma GH", "setting": "[1]; 4.0 ppm of feed", "value": "1.8 ± 0.2", "unit": "ng/mL"},
      {"measurement": "plasma Glucagon", "setting": "[1]; 4.0 ppm of feed", "value": "824 ± 61", "unit": "pg/mL"},
      {"measurement": "plasma IGF-I", "setting": "[1]; 4.0 ppm of feed", "value": "58.8 ± 8.2", "unit": "ng eg/ml"},
      {"measurement": "plasma Insulin", "setting": "[1]; 4.0 ppm of feed", "value": "344 ± 92", "unit": "pg/mL"},
      {"measurement": "plasma T4", "setting": "[1]; 4.0 ppm of feed", "value": "5.1 ± 0.8", "unit": "ng/mL"},
      {"measurement": "effect on plasma GH levels", "setting": "[1]; all dietary T3 levels", "value": "decreased (p<0.05); also recorded: decrease plasma GH levels"},
      {"measurement": "plasma T4 level, decrease", "setting": "[1]; regardless of dose level (p<0.05)", "value": 67, "unit": "%"},
      {"measurement": "growth deficit of hypophysectomized chickens", "setting": "[2]", "value": "correct the growth deficit"},
      {"measurement": "I/G Molar Ratio", "setting": "[3]; Group 1, dietary, N = 24", "value": 0.51},
      {"measurement": "plasma Glucagon (G)", "setting": "[3]; Group 1, dietary, N = 24", "value": 491, "unit": "pg/mL"},
      {"measurement": "plasma Insulin (I)", "setting": "[3]; Group 1, dietary, N = 24", "value": 409, "unit": "pg/mL"},
      {"measurement": "effect on insulin and glucagon secretion", "setting": "[3]; dietary T3 / elevated plasma T3", "value": "inhibit insulin secretion whereas glucagon secretion is enhanced; also recorded: depresses insulin secretion while glucagon secretion is increased"},
      {"measurement": "plasma I/G molar ratio, fold lower", "setting": "[3]; vs CF birds (P<0.05)", "value": 4.3, "unit": "times"},
      {"measurement": "plasma GH level, reduction", "setting": "[3]; vs CF treatment", "value": 32, "unit": "%"},
      {"measurement": "plasma T4 level, reduction", "setting": "[3]; vs average of CF and TRH treatments (P<0.05)", "value": 58, "unit": "%"},
      {"measurement": "effect on weight gain", "setting": "[4]; 0.1 ppm", "value": "no significant adverse effect upon weight gain can be detected"},
      {"measurement": "protein content of the carcass relative to fat content", "setting": "[4]; 0.1 ppm", "value": "improved relative to fat content"},
      {"measurement": "effect on growth rate", "setting": "[4]; 0.25 ppm", "value": "virtually no statistically significant adverse effect on growth rate"},
      {"measurement": "effect on weight gain", "setting": "[4]; 1 ppm", "value": "some deviation from normal weight gain is observed"}
    ]}
  ]
}
